Consider three molecules from patent publication US5541171A, “Orally administrable pharmaceutical composition” (priority 1981, dated 1996).

Entries after “also recorded” stand apart in the source; their conditions may differ.

For data set [1], the system named is ulcerative colitis or proctitis. Briefly: Randomised double-blind 16 week maintenance trial in colitis: relapse. In kind it is in vivo, patients. As for the experimental part: Seventy-two patients who were in remission with ulcerative colitis or proctitis and taking at least 4 sulphasalazine tablets each day gave their informed consent to a clinical trial. Remission was defined as the passage of three or fewer stools each day without blood or slime during the previous month. Thirty-six patients were male and 36 female. Sigmoidoscopy with rectal biopsy was performed initially and patients only entered the trial if the mucosa was normal (grade 1) or oedematous (grade 2). Biopsies were coded and reviewed by a pathologist who graded them as 1 (normal) or grades 2, 3 or 4 representing mild, moderate or severe inflammatory change.
At least 3 tablets of 5-ASA were taken daily (1200 mg) with an increased dose of 1 tablet for each gram of sulphasalazine above the minimum entry dose of 2 grams for patients taking a high dose of sulphasalazine. […]

The conditions of data set [2]: in vivo.
Experimental: Patients completed diary cards throughout 16 weeks and were asked to note any side effects; they were seen after 4, 12 and 16 weeks. On completion of the trial a further sigmoidoscopy was performed to ensure the muscosa appeared normal. Patients were seen promptly if symptoms recurred and a sigmoidoscopy was performed at that time. A relapse was defined as a recurrence of symptoms with increased stool frequency and blood loss with sigmoidoscopic changes of contact or spontaneous mucosal haemorrhage (grade 3) or the presence of pus with bleeding and ulceration (grade 4). Blood was taken for a routine blood count and examination of the film at each clinic attendance and measurements of the serum electrolytes and liver function tests were performed initially and after 16 weeks. The study, which was randomised and double-blind in design, involved using identical placebo tablets for both sulphasalazine and 5-ASA; each patient was given two sets of tablets with either active 5-ASA and placebo sulphasalazine or placebo 5-ASA and active sulphasalazine. The patient's usual dose of sulphasalazine was continued with a minimum dose of 2 grams daily. The tablets of 5-ASA contained 400 mg (ie the amount of 5-ASA contained in 1 gram of sulphasalazine). […] Compliance was checked at each hospital visit by counting the number of tablets returned. […]
For data set [3] the following is noted: cited from earlier work.
Data set [4] relates to colitis, Crohn's disease, idiopathic proctitis and chronic arthritis. As to conditions: in vivo; cited from earlier work.
A short description of data set [5]: Serum sulphapyridine levels after ingestion of coated capsules (HPLC). The procedure:
Six convalescent patients, 3 male and 3 female with a mean age of 57 years, from a general medical ward gave informed consent to a clinical trial. […] The thickness of the coat was checked using a micrometer to establish the range of thickness and to measure both the wide and narrow end of the capsule. Each capsule contained barium sulphate (300 mg) potato starch (20 mg) and sulphapyridine (300 mg) as a convenient marker Plain abdominal X-rays were taken at 5, 8 and 12 hours after ingestion and blood samples at 0, 3, 5, 7, 9, 12 and 24 hours after ingestion to assay sulphapyridine levels.
Sulphapyridine was analysed by high pressure liquid chromotography (HPLC) using a modification of the method described by Shaw et al (J. Pharm. Pharmacol. 1980;32;67). The analysis was performed on a LiChrosorb 10 RP 18 bonded silica reversed phase column (Merck). The mobile phase was acetonitrile--0.05M potassium dihydrogen phosphate solution (20:80) containing 0.1 per cent tetrabutyl ammonium hydroxide. Sulphapyridine was detected spectrometrically at 260 nm. Serum samples were treated with an equal volume of ethanol to precipitate plasma proteins and after centrifugation, the supernatant was injected on to the chromatograph. Sulphapyridine concentration was read directly from a calibration curve which was linear over the range 1-25 μg/ml (R=0.99).

For `Nc1ccc(O)c(C(=O)O)c1` [Example 5-ASA, 5-amino-salicylic acid], in data set [1] (chi squared), the “significance of difference in relapses between 5-ASA and sulphasalazine” value is “not statistically significant; also recorded: p = NS”. Besides, the “side effects (headache, nausea or indigestion), comparison between groups” value in data set [2] is recorded as “no difference”. In data set [3] (in vivo), the clearance / excretion entry is recorded as “excreted rapidly after acetylation” and the serum levels entry is reported as “very low”. Moreover, in data set [4], the usefulness in treatment entry is “pharmacologically active agent in the treatment of colonic and rectal ailments”.
For the molecule `Nc1ccc(S(=O)(=O)Nc2ccccn2)cc1` [sulphapyridine], the clearance / excretion entry in data set [3] (in vivo) is “slowly cleared from the serum”. Moreover, the “absorption after oral administration” value in data set [3] is on record as “almost entirely absorbed from the small intestine before reaching the colon”. Moreover, in data set [5] (3 hours, any patient), the “drug detected in serum 3 hours after ingestion” value was “No drug was detected”. In data set [5] (human, in vivo), the “time of maximal serum levels” value was 12 or 24 hours after ingestion. Further, the “patients with drug detected in serum 5 hours after ingestion” value in data set [5] (in vivo) worked out at 2 patients.
In data set [1] (16 weeks, 34 patients on 5-ASA (coated tablets, at least 1200 mg daily), 33 on sulphasalazine (minimum 2 grams daily)), `O=C(O)c1cc(/N=N/c2ccc(S(=O)(=O)Nc3ccccn3)cc2)ccc1O` [sulphasalazine, Salicylazosulphapyridine] registered a Relapses of 6 patients. The “side effects (headache, nausea or indigestion), comparison between groups” value in data set [2] is reported as “no difference”. In addition, in data set [3], the “absorption after oral administration” value is “only absorbed to a limited extent before reaching the colon”. Besides, in data set [4], the usefulness in treatment entry was “useful in the treatment of colitis, Crohn's disease, idiopathic proctitis and chronic arthritis”.
